# In US20220273759A1, “PHARMACEUTICAL ASSOCIATION FOR CONVERTING A NEOPLASTIC CELL INTO A NON-NEOPLASTIC CELL AND USES THEREOF” (HISTIDE AG, priority 2015, published 2022):
# How the values were obtained:
# [1] = system: human osteosarcoma cells, MG63; experiment: Tumor cell recoding via quantification of pRB and p53 (immunofluorescence staining, ImageJ); assay type: cell-based; conditions: MG63, quantification of pRB
# Procedure: The cells were first fixed for 20 min with 4% paraformaldehyde/PBS at 4° C. After fixation, the cells were permeabilized in PBS containing 1% Triton X-100 for 15 min. Protein immunofluorescent visualization was performed by first treating the cells with 1% (v/v) specific monoclonal antibodies for 1 hour at 37° C. Then the samples were incubated with Alexa Fluor® 568 or 647 (F(ab′)2 fragment of IgG(H+L)) during 30 min at room temperature. The cell nuclei were counterstained in 20 ng/mL DAPI for 10 min at room temperature.
# For this type of quantification the freeware image analysis ImageJ® software was used. The raw image was first converted to an 8-bit file, and then the unsharp mask feature was used (settings 1:0.2) to remove the image background (rolling ball radius 10). After smoothing, the resulting image, which appears similar to the original photomicrograph but with minimal background, was then converted to a binary image by setting a threshold. Threshold values were determined empirically by selecting a setting, which gave the most accurate binary image for a subset of randomly selected photomicrographs. The cell area was determined by manual delineation on raw fluorescent images. Total contact area and mean contact area per cell were calculated by “analyse particules” in ImageJ®. A minimum of 50 cells per condition were analyzed.
# Neoplastic cells (in this example osteosarcoma cells) were cultured on pharmaceutical associations comprising PET as a bioactive carrier and one of GFR-binding compounds of SEQ ID NO: 11 to 14, 24 to 26 and 51 to 63. A rapid (24 hours) decrease of the tumor markers was observed (FIG. 7). The adhesion checkpoint then activates the tumor suppressor proteins p53 and pRB. […]
# [2] = system: Smad1/5/8 signaling pathway; experiment: Growth factor receptor activation: western blot quantification of phospho-smad1/5/8; assay type: cell-based; conditions: Table 4; human osteosarcoma cells MG63; quantification of western blots of phospho-smad1/5/8
# Procedure: After 24 hours of culture, cells were permeabilized (10% SDS, 25 mM NaCl, 10 nM pepstatin and 10 nM leupeptin in distilled water and loading buffer), boiled for 10 minutes and resolved by reducing PAGE (Invitrogen). Proteins were transferred onto nitrocellulose, blocked, and labeled with HRP-conjugated antibodies (Invitrogen). Integrin αv, α5, +3, α4, β1, β3, β5 and […] were blotted by treating the nitrocellulose with monoclonal anti-integrin (extracellular domain) αv, α5, +3, α4, β1, β3, β5 and β6 antibodies (Santa Cruz Biotechnology). Phosphor-Smad1/5/8 was blotted by treating the nitrocellulose with monoclonal anti-p-Smad1/5/8 (Santa Cruz Biotechnology). For all of the experiments the western blot was performed in triplicate, along with an additional blot for actin and coomassie blue staining to ensure constant protein load among samples.
Sequence,pRB (%) ([1]; Table 4),pRB (%) ([1]; Table 5),p-Smad1/5/8 (%) [2]
ASAAPSSVPQALRSVKVAKV (Non-cyclic GFR-binding peptide) [SEQ ID NO: 88],18%,18%,37%
KVGKASSVPTKLEPISILYL (Non-cyclic GFR-binding peptide) [SEQ ID NO: 71],17%,17%,66%
TQVKMRPVQVRKI (Non-cyclic GFR-binding peptide) [SEQ ID NO: 92],8%,8%,44%
ASAAPSSVPQALEPLTILYY (Non-cyclic GFR-binding peptide) [SEQ ID NO: 77],15%,15%,55%
RVPSTSSAPTKTSATSVLYY (Non-cyclic GFR-binding peptide) [SEQ ID NO: 81],17%,17%,34%
GIPEPSSVPQKMEPLPIVYY (Non-cyclic GFR-binding peptide) [SEQ ID NO: 75],10%,10%,51%
VVPKPSSAPTQLEPISILYL (Non-cyclic GFR-binding peptide) [SEQ ID NO: 69],20%,20%,39%
GIPEPSSTPTKMSPINMLYF (Non-cyclic GFR-binding peptide) [SEQ ID NO: 94],9%,9%,39%
HVPKPSSAPTKLEPISILYL (Non-cyclic GFR-binding peptide) [SEQ ID NO: 100],19%,19%,75%
TVPKPSSAPTQLRSVKVAKV (Non-cyclic GFR-binding peptide) [SEQ ID NO: 83],12%,12%,35%
KVGKASSVPQKLEPLPIVYY (Non-cyclic GFR-binding peptide) [SEQ ID NO: 84],9%,9%,33%
ASASPSSVSQDLSSLSILFF (Non-cyclic GFR-binding peptide) [SEQ ID NO: 68],14%,14%,40%
ASAAPSSVPQALSSLSILFF (Non-cyclic GFR-binding peptide) [SEQ ID NO: 67],15%,15%,38%
ASASPSSVPQDLRSVKVAKV (Non-cyclic GFR-binding peptide) [SEQ ID NO: 90],9%,9%,56%
YVPKPSSTPTKLSPINMLYF (Non-cyclic GFR-binding peptide) [SEQ ID NO: 66],8%,8%,38%
TKPTSTPTKLSPINMLYF (Non-cyclic GFR-binding peptide) [SEQ ID NO: 65],10%,10%,36%
SSVKSQPSRVHHKPLSMLYV (Non-cyclic GFR-binding peptide) [SEQ ID NO: 72],19%,19%,47%

Sequence,pRB (%) ([1]; Table 4),pRB (%) ([1]; Table 5),p-Smad1/5/8 (%) [2]
RNVQSRPTQVQLSPISILFI (Non-cyclic GFR-binding peptide) [SEQ ID NO: 98],17%,17%,34%
NDEGLESVPTEESSLSILFF (Non-cyclic GFR-binding peptide) [SEQ ID NO: 80],9%,9%,27%
ASASPSSVSQDLEPLTILYY (Non-cyclic GFR-binding peptide) [SEQ ID NO: 78],18%,18%,52%
SIPKASSVPQELEPLPIVYY (Non-cyclic GFR-binding peptide) [SEQ ID NO: 76],8%,8%,54%
KASKASSVPQKLEPLPIVYY (Non-cyclic GFR-binding peptide) [SEQ ID NO: 85],10%,10%,22%
KIPKASSVPQELEPLPIVYY (Non-cyclic GFR-binding peptide) [SEQ ID NO: 74],9%,9%,44%
KIPKASSVPTELSPISVLYK (Non-cyclic GFR-binding peptide) [SEQ ID NO: 87],21%,21%,32%
VSQDLRSVKVAKV (Non-cyclic GFR-binding peptide) [SEQ ID NO: 89],17%,17%,36%
SSVKSQPSRVHHSPISILFI (Non-cyclic GFR-binding peptide) [SEQ ID NO: 97],14%,14%,39%
RNVQSRPTQVQLKPLSMLYV (Non-cyclic GFR-binding peptide) [SEQ ID NO: 73],16%,16%,48%
NDEGLESVPTEESAISMLYL (Non-cyclic GFR-binding peptide) [SEQ ID NO: 96],22%,22%,78%
NDEGLESVPTEERSVKVAKV (Non-cyclic GFR-binding peptide) [SEQ ID NO: 91],12%,12%,55%
NDEGLESVPTEEEPLTILYY (Non-cyclic GFR-binding peptide) [SEQ ID NO: 79],17%,17%,58%
VPTGQSAISMLYL (Non-cyclic GFR-binding peptide) [SEQ ID NO: 95],17%,17%,52%
KIPKASSTPTELSPINMLYF (Non-cyclic GFR-binding peptide) [SEQ ID NO: 93],7%,7%,47%
AVPKASSAPTKLEPISILYL (Non-cyclic GFR-binding peptide) [SEQ ID NO: 70],21%,21%,67%
YVPKPSSAPTKLNAISVLYF (Non-cyclic GFR-binding peptide) [SEQ ID NO: 99],21%,21%,66%
